Experimental data published in US8900845B2, “Methods and uses of KSR kinase, and mutations thereof” (Washington University, priority 2011, dated 2014).

Legend:
[1] = tested on: MEK phosphorylation (pMEK); experiment: MEK activation (pMEK immunoblot) in cells co-expressing KSR and CRAF; assay type: cell-based; settings: saturating dose, 2 hours
Procedure: Kinase reactions: Cells transfected with various constructs were treated or not with PLX4720 for 1-2 hours. Cells were lysed with 1% NP40 and immunoprecipitates prepared.
In these experiments, we tested the function of the CRAF/KSR dimer by co-expressing both proteins and using PLX4720 (FIG. 1F) or GDC0879 (data not shown) to induce dimer formation between the two proteins. […] Cells expressing the indicated constructs were treated with a saturating dose of PLX for 2 hours before cell lysates were prepared and analyzed for pMEK by immunoblotting.

[2] = biological target: KSR kinase activity towards MEK (Homo sapiens, UniProt P04049); settings: cells co-expressing KSR and CRAF treated with 10 μM for one hour; immunoprecipitates pre-treated with 50 μM PLX
Chain of KSR kinase activity towards MEK (Q61097 whole entry partner): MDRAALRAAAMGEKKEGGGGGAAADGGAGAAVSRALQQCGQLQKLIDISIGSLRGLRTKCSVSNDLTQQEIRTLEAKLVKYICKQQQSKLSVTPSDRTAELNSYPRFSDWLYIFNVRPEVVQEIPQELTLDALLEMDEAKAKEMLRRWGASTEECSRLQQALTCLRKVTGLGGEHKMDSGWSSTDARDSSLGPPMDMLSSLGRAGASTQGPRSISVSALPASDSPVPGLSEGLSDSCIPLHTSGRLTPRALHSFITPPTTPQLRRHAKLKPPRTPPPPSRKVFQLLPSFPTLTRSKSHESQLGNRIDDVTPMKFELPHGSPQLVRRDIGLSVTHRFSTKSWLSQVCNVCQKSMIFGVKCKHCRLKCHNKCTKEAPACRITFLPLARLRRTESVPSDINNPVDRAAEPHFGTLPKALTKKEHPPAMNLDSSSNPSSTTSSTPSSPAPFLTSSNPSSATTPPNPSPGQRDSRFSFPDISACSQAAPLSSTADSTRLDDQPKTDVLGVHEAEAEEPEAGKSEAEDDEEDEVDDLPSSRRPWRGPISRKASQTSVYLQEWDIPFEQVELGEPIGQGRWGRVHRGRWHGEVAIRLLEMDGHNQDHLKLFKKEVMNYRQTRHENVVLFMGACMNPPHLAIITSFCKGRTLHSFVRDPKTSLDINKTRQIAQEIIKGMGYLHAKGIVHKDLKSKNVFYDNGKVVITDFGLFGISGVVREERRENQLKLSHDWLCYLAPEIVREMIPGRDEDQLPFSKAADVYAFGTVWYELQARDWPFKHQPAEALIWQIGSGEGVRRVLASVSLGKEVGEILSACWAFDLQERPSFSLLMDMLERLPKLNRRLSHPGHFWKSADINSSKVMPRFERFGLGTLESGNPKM
Chain of KSR kinase activity towards MEK (P04049 whole entry): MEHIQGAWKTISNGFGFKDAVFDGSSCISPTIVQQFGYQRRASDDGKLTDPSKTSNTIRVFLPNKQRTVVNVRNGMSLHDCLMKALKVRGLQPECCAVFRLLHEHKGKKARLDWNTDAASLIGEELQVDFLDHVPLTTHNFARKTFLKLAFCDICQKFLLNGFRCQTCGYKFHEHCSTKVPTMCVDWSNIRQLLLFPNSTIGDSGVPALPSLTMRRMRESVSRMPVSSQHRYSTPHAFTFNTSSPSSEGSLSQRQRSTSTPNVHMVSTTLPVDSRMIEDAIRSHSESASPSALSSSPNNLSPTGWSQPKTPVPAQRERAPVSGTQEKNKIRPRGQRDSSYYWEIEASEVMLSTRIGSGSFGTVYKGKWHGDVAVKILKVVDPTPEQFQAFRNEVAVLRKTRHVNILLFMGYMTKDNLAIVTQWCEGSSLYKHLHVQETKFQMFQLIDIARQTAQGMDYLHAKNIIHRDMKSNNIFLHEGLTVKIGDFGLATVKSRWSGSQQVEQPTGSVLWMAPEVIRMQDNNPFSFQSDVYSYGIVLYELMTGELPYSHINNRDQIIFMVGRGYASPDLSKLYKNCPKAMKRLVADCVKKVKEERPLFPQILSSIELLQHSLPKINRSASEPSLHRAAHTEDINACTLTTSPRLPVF
Procedure: Kinase reactions: Cells transfected with various constructs were treated or not with PLX4720 for 1-2 hours. Cells were lysed with 1% NP40 and immunoprecipitates prepared. In vitro kinase reactions were performed in a standard buffer with 10 mM MgCl2, with 1 ug of kinase dead MEK, and 100 uM cold ATP. In some experiments, to inhibit contaminating Raf activity, 50 uM PLX4720 was preincubated with the reactions.
To test whether KSR might be activated by CRAF, we co-expressed KSR and CRAF and induced dimerization of CRAF with KSR by adding a low dose (10 μM) of PLX4720. KSR immunoprecipitates were then prepared and tested for kinase activity in vitro. To inhibit any contaminating RAF kinase activity co-precipitating with KSR, we preincubated the immunoprecipitates with an inhibitory dose of PLX4720 (50 μM). […] Cells were co-transfected with WT or ATP binding deficient KSR and CRAF and immunoprecipitates prepared after cells were treated with an activating dose of PLX (10 μM) for one hour. Immunoprecipitates were prepared, pre-treated with 50 μM PLX to inhibit co-precipitating RAF activity and then tested for kinase activity using purified MEK.

[3] = biological target: FLAG-KSR and BRAF dimer (Homo sapiens, UniProt P15056); experiment: Co-immunoprecipitation of KSR/BRAF dimers in drug-treated cells; assay type: cell-based; settings: cells overexpressing FLAG-KSR and BRAF, drug for 1 hour, KSR immunoprecipitates immunoblotted for BRAF
Chain of FLAG-KSR and BRAF dimer (P15056 whole entry): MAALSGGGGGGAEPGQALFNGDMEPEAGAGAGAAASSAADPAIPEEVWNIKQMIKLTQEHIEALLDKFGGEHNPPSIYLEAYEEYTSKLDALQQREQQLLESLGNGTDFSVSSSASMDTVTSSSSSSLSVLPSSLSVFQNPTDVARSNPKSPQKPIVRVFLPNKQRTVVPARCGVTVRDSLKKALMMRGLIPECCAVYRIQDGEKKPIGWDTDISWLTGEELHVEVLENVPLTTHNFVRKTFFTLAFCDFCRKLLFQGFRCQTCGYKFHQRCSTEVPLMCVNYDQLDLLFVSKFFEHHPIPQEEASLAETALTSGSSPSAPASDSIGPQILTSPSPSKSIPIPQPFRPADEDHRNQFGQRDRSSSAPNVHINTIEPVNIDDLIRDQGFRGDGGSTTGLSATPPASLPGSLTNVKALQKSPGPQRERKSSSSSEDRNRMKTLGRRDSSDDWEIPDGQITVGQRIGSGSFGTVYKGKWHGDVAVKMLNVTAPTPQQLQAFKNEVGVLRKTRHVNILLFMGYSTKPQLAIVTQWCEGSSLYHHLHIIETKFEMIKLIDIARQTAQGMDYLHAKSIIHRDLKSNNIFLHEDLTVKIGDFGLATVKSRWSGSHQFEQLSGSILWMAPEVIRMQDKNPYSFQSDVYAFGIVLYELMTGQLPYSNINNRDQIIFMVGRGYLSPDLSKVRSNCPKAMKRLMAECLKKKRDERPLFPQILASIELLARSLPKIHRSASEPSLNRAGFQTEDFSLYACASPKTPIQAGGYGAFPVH
Chain of FLAG-KSR and BRAF dimer (Q61097 whole entry partner): as the sequence (Q61097 whole entry partner) above
Procedure: (§1) Dimerization experiments: For most experiments, constructs for wild-type and mutated BRAF, CRAF and KSR1 were appended with epitope tags (FLAG, 6× His, Myc, GFP) and were expressed by transient transfection into 293T cells. Cells were lysed in a buffer containing 1% NP40 and 0.1% deoxycholate. Cells were pretreated with drugs for 1 hour prior to lysis. Immunoprecipitates were analyzed by gel electrophoresis and immunoblotted after transfer to nitrocellulose membranes using standard methods.
(§2) Cells grown in serum, expressing combinations of KSR, BRAF and CRAF, were treated with both drugs. Co-immunoprecipitations were then performed to examine dimer formation.
(§3) KSR immunoprecipitates were prepared from cells overexpressing FLAG-KSR and BRAF after treatment with the indicated drug for 1 hour and immunoblotted using antibodies to BRAF.

[4] = biological target: BRAF/CRAF dimers (Homo sapiens, UniProt P04049+P15056); settings: cells overexpressing myc-CRAF and BRAF, drug for 1 hour, CRAF immunoprecipitates immunoblotted for BRAF
Chain of BRAF/CRAF dimers (P15056 whole entry): as the sequence (P15056 whole entry) above
Chain of BRAF/CRAF dimers (P04049 whole entry): as the sequence (P04049 whole entry) above
Procedure: as §1, §2, §3

[5] = biological target: T1, KSR and CRAF dimer (Homo sapiens, UniProt P04049); experiment: Co-immunoprecipitation of KSR/CRAF dimers in drug-treated cells; assay type: cell-based; settings: cells overexpressing FLAG-KSR and myc-CRAF, drug for 1 hour, FLAG-KSR immunoprecipitates immunoblotted for CRAF (myc)
T1 construct: expressed in transfected cells; host or cells: 293T cells
T1 sequence (P04049 whole entry): as above
T1 sequence (Q61097 whole entry partner): as the sequence (Q61097 whole entry partner) above
Procedure: as §1, §2, §3

Q: How did the “MEK activation (pMEK)” value [1] turn out when `CCCS(=O)(=O)Nc1ccc(F)c(C(=O)c2c[nH]c3ncc(Cl)cc23)c1F` [PLX4720] was run?
A: MEK was still activated

Q: And the “kinase activity towards MEK in KSR immunoprecipitates” value [2]?
A: induced kinase activity towards MEK in the KSR immunoprecipitates

Q: And the “dimer formation between KSR and BRAF” value [3]?
A: but not PLX4720 can induce dimer formation between FLAG-KSR and BRAF

Q: And the “dimer formation between BRAF and CRAF” value [4]?
A: but not PLX4720 induces dimers between BRAF and CRAF

Q: And the “dimer formation between KSR and CRAF” value [5]?
A: induce dimer formation between KSR and CRAF
